According to patent publication US11033550B2, “Medicament” (TAKEDA PHARMACEUTICAL COMPANY LIMITED, priority 2016, dated 2021):

How the values were obtained:
[1] = system: monocrotaline-induced pulmonary hypertensive rat model; assay: Right ventricular pressure (RVP) by catheterization in monocrotaline-induced pulmonary hypertensive rat model; format: in vivo; conditions: for RVP: measured 28 days after MCT, mean
Experimental: (§1) Monocrotaline (MCT) was subcutaneously injected at 50 mg/kg (in 50% dimethyl sulfoxide solution) to male Sprague-Dawley rats having a body weight of 250 g ± 10% to prepare pulmonary hypertensive rat models. Compound A′ and the same amount of a vehicle were orally administered to a compound A′ administration group (dose: 1 mg/kg, 3 mg/kg, or 10 mg/kg) and a control group, respectively, every day over 14 days from the 14th day after the MCT administration. This experiment was carried out using these groups each involving 9 rats (12 rats were used only in a vehicle control group). • (2) Effect on Right Ventricular Pressure (RVP)
(§2) The right ventricular pressure (RVP) was measured by catheterization for the rats that survived at 28 days after MCT administration (negative control group (monocrotaline non-administered group), 9 rats; vehicle control group, 8 rats; compound A′ 1 mg/kg administration group, 9 rats; compound A′ 3 mg/kg administration group, 5 rats; compound A′ 10 mg/kg administration group, 9 rats; total 40 rats).

[2] = system: monocrotaline-induced pulmonary hypertensive rat model; assay: Right ventricular systolic pressure (RVSP) by catheterization in monocrotaline-induced pulmonary hypertensive rat model; format: in vivo; conditions: for RVSP: measured 28 days after MCT, mean
Experimental: as §1
as §2, with “ventricular systolic” for “ventricular”, “(RVSP)” for “(RVP)”, “((negative” for “(negative”, “rats)).” for “rats).”

[3] = system: monocrotaline-induced pulmonary hypertensive rat model; assay: Right ventricular hypertrophy, RV/(LV+S), in monocrotaline-induced pulmonary hypertensive rat model; format: in vivo; conditions: for RV/(LV + S): 28 days after MCT, index for right cardiomegaly, mean
Experimental: as §1
The right ventricle weight (RV), left ventricle weight (LV), and interventricular septum weight (S) were measured for pulmonary hypertensive rat models that survived at 28 days after MCT administration (negative control group (monocrotaline non-administered group), 9 rats; vehicle control group, 8 rats; compound A′ 1 mg/kg administration group, 9 rats; compound A′ 3 mg/kg administration group, 5 rats; compound A′ 10 mg/kg administration group, 9 rats; total 40 rats)), and RV/(LV+S) was determined as an index for right cardiomegaly.

[4] = system: monocrotaline-induced pulmonary hypertensive rat model; assay: Pulmonary artery medial wall thickening (Elastica van Gieson staining) in monocrotaline-induced pulmonary hypertensive rat model; format: in vivo; conditions: for Thickness of pulmonary artery medial wall: 10 mg/kg orally, 28 days after MCT, mean
Experimental: as §1
(§3) Concerning the pulmonary hypertensive rat models that survived at 28 days after MCT administration (negative control group (monocrotaline non-administered group), 9 rats; vehicle control group, 8 rats; compound A′ 10 mg/kg administration group, 9 rats), tissue specimens of pulmonary tissue sections were prepared from 5 rats per group (total 15 rats) by Elastica van Gieson staining method to measure the thickening of the medial wall of the pulmonary artery.

[5] = system: monocrotaline-induced pulmonary hypertensive rat model; assay: Pulmonary artery occlusion index (Elastica van Gieson staining) in monocrotaline-induced pulmonary hypertensive rat model; format: in vivo; conditions: for Pulmonary artery occlusion: 10 mg/kg orally, 28 days after MCT, twice medial wall thickness divided by artery diameter, mean
Experimental: as §1
as §3, with “occlusion” for “the thickening of the medial wall”, “artery. A value obtained by dividing a value that is twice as much as the thickness of the pulmonary artery medial wall by the diameter of the pulmonary artery was used as an index of occlusion.” for “artery.”

[6] = system: monocrotaline-induced pulmonary hypertensive rat models; assay: Survival rate (Kaplan-Meier) in monocrotaline-induced pulmonary hypertensive rat models; format: in vivo; conditions: 1, 3 or 10 mg/kg orally once every day over 14 days from 14th day after MCT; result in words
Experimental: as §1, with “230” for “250”, “10 g” for “10%”, “respectively, once” for “respectively,”, “12 rats.” for “9 rats (12 rats were used only in a vehicle control group).”, “Survival Rate” for “Right Ventricular Pressure (RVP)”

[7] = molecular target: T1, interaction between human NHE1 and human CHP1 (Homo sapiens, UniProt P19634+Q99653); assay: CHP1-NHE1 interaction, AlphaScreen protein interaction measurement system; format: binding
T1 construct: made in house; host or cells: NHE1: FreeStyle 293 cells (microsomal fraction); CHP1: wheat germ cell-free translation system
Experimental: The inhibitory activity of compound A′ on the interaction between human NHE1 and human CHP1 was evaluated in a protein interaction measurement system using an amplified luminescence proximity homogeneous assay (AlphaScreen™ (PerkinElmer)). A microsomal fraction of FLAG-tagged full-length human NHE1 (Accession No. NM 003047) was prepared by being expressed in human embryonic kidney cell-derived FreeStyle™ 293 cells. Also, biotinylated full-length human CHP1 (Accession No. NM 007236) was expressed in a wheat germ cell-free translation system and purified. The NHE1 microsomal fraction and CHP 1 were diluted with an assay buffer (25 mM Tris-HCl (pH 7.4), 137 mM NaCl, 2.7 mM KCl, 0.1% BSA, 1 mM DTT), and compound A′ was added thereto. Then, the mixture was added to an Alpha Plate-384 Shallow Well (Perkin Elmer) in an amount of 2 μL/well, and reacted at room temperature for 60 minutes. Acceptor Beads and Donor Beads accompanying an AlphaScreen FLAG(M2) Detection Kit (PerkinElmer) were added thereto each in an amount of 2 μL/well, and the mixture was reacted at room temperature for 60 minutes. Thereafter, the AlphaScreen signal intensity was measured using an EnSpire Multi-label reader (PerkinElmer). Different concentrations of compound A′ (concentration: 50.0 nM to 0.8 nM) were evaluated in this test system. • (2) Results

[8] = molecular target: T2, calcium-sensing receptor (CaSR) (Homo sapiens, UniProt P41180); conditions: Non Patent Literature 6; cited from earlier work
T2 sequence (P41180 20-1078): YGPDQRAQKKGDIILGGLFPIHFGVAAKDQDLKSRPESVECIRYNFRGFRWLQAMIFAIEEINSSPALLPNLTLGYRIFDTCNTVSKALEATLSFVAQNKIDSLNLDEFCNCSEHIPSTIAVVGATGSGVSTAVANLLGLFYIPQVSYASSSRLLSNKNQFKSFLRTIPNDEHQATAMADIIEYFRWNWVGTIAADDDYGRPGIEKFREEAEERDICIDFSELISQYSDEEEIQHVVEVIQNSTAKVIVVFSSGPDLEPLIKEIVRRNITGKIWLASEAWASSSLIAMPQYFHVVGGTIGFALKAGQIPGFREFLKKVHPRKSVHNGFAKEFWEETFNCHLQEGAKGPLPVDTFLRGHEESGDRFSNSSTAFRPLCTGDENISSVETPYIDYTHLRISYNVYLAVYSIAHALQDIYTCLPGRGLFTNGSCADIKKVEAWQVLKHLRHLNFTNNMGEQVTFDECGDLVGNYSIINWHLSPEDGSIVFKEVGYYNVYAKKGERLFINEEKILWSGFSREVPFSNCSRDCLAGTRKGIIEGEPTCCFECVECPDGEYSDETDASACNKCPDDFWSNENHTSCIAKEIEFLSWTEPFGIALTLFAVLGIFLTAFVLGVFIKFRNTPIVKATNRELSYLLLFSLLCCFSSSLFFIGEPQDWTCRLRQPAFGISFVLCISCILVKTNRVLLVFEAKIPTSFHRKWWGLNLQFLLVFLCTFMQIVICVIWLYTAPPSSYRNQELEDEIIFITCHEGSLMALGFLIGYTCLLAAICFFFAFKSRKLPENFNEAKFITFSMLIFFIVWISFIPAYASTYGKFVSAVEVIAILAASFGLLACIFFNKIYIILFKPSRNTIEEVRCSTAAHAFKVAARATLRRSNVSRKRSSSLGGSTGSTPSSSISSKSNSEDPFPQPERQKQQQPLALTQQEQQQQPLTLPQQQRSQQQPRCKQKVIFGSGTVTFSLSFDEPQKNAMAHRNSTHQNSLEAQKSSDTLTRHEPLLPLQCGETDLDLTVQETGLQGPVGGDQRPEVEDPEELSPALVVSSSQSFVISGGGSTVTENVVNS

[9] = Non Patent Literature 7; cited from earlier work
[10] = system: monocrotaline (MCT)-induced pulmonary hypertensive rats; conditions: Non Patent Literatures 1 to 5; cited from earlier work
[11] = system: hypoxia-induced pulmonary hypertensive (HPH) mice; conditions: Non Patent Literatures 1 to 5; cited from earlier work
[12] = 1 mg/kg orally every day over 14 days from 14th day after MCT
[13] = 3 mg/kg orally every day over 14 days from 14th day after MCT
[14] = 10 mg/kg orally every day over 14 days from 14th day after MCT
[15] = Diameter of pulmonary artery (<50 μM)

T1 sequence (P19634 whole entry): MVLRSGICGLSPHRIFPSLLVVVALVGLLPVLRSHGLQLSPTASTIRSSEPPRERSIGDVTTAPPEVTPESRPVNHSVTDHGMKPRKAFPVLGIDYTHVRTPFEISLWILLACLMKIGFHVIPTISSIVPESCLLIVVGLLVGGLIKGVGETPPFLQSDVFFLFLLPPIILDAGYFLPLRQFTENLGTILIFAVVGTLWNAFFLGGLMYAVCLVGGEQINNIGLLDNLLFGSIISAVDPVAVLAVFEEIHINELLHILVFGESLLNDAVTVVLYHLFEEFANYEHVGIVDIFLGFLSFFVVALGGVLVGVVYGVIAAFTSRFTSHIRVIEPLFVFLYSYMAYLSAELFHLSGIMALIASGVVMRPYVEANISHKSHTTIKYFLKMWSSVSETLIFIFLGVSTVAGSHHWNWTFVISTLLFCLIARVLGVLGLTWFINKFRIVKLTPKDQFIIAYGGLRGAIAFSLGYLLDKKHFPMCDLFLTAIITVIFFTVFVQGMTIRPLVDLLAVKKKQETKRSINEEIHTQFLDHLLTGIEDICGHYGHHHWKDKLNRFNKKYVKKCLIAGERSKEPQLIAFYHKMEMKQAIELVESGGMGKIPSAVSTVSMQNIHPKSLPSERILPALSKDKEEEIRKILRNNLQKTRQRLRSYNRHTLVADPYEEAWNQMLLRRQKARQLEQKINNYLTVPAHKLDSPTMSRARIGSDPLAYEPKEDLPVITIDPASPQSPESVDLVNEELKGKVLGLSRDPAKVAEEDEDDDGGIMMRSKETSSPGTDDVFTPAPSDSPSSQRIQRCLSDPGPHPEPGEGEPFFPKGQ
T1 sequence (Q99653 whole entry): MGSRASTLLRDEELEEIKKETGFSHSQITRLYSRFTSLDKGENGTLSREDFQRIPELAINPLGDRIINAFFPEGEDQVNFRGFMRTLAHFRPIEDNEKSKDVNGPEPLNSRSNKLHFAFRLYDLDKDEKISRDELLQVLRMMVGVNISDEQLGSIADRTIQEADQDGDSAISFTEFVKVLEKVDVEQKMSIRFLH

## CCc1ccc(C(CC)(CC)NC(=O)c2c(C)nn3c2N[C@@H](c2ccccc2)CC3(C)C)cc1 [Compound A′, (5R)-N-[1-Ethyl-1-(4-ethylphenyl)propyl]-2,7,7-trimethyl-5-phenyl-4,5,6,7-tetrahydropyrazolo[1,5-a]pyrimidine-3-carboxamide]
[1]; [12]
  RVP: 26.4 mmHg
[1]; [13]
  RVP: 22.4 mmHg
[1]; [14]
  RVP: 17.8 mmHg
[1]; at 28 days after MCT administration, summary of Table 1
  Effect on right ventricular pressure, in words: remarkably improved
[2]; [12]
  RVSP: 48.3 mmHg
[2]; [13]
  RVSP: 39.1 mmHg
[2]; [14]
  RVSP: 28.0 mmHg
[2]; at 28 days after MCT administration, summary of Table 2
  Effect on right ventricular systolic pressure (RVSP), in words: remarkably improved
[3]; [12]
  RV/(LV + S): 0.333
[3]; [13]
  RV/(LV + S): 0.307
[3]; [14]
  RV/(LV + S): 0.282
[3]; at 28 days after MCT administration, summary of Table 3
  Effect on right ventricular hypertrophy, in words: remarkably improved
[4]; Diameter of pulmonary artery (50 μM-100 μM)
  Thickness of pulmonary artery medial wall: 6.86
[4]; [15]
  Thickness of pulmonary artery medial wall: 4.28
[4]; at 28 days after MCT administration, summary of Table 4
  Effect on thickening of the pulmonary artery medial wall, in words: remarkably improved
[5]; [15]
  Pulmonary artery occlusion: 0.20
[5]; Diameter of pulmonary artery
  Pulmonary artery occlusion: 0.19
[5]; at 28 days after MCT administration, summary of Table 5
  Effect on occlusion of the pulmonary artery, in words: remarkably improved
[6]
  Effect on survival rate (Kaplan-Meier survival curve, FIG. 1): remarkably improved the survival rate
[7]; AlphaScreen, FLAG-tagged human NHE1 microsomal fraction and biotinylated human CHP1, 50.0 nM to 0.8 nM tested, read-out: CHP1-NHE1 interaction activity (50% inhibitory concentration)
  IC50: 4.7 nM
[7]; summary of Table 6
  CHP1-NHE1 inhibitory activity, in words: remarkable CHP1-NHE1 inhibitory activity
[8]
  Activity at CaSR: CaSR antagonist

## C[C@@H](N[C@H]1CCCC[C@@H]1NC(=O)c1ccc(Cl)cc1)c1cccc2ccccc12 [Calhex 231]
[9]
  Effect on the action of an existing PAH drug (PDE 5 inhibitor/sildenafil): enhance the effect

## CC(C)(Cc1ccc2ccccc2c1)NC[C@@H](O)COc1cccc(Cl)c1C#N [NPS-2143]
[10]
  Reported effects on pulmonary hypertension pathology: inhibit cardiac hypertrophy, a rise in right ventricular systolic pressure, myocardial tissue fibrosis, and pulmonary vascular remodeling
[11]
  Reported effects on pulmonary hypertension pathology: inhibit cardiac hypertrophy, a rise in right ventricular systolic pressure, myocardial tissue fibrosis, and pulmonary vascular remodeling
[9]
  Effect on the action of an existing PAH drug (PDE 5 inhibitor/sildenafil): enhance the effect
